US20240409573A1, “CALICHEAMICIN DERIVATIVES AND ANTIBODY DRUG CONJUGATES THEREOF” (priority 2017, published 2024)

Assays:
[1] = test system: TF-1 AML xenograft tumors; assay: TF-1 AML subcutaneous xenograft model; assay type: in vivo, female Athymic nu/nu mice; conditions: Mylotarg dosed at 1 mg/kg Q4dx4 intravenously
Procedure: The cyno-human chimeric anti 0033 antibody, 11A1, was conjugated to various linker-payloads (as per 0033 conjugates in Examples 50-110) and tested in Acute Myeloid Leukemia (AML) xenograft models. For each model described below the first dose was given on Day 0. The tumors were measured at least once a week and their volume was calculated with the formula: tumor volume (mm^3)=0.5×(tumor width^2)(tumor length). The mean tumor volumes (±S.E.M.) for each treatment group were calculated having a maximum of 10 animals and a minimum of 4 animals to be included. All animal experiments were conducted in a facility accredited by the Association for Assessment of Laboratory Animal Care under Institutional Animal Care and Use Committee guidelines and appropriate animal research approval.
The effects of anti-CD33 ADCs were examined in immunodeficient mice on the in vivo growth of human tumors. For subcutaneous (sc) AML models, 10×10^6 TF-1 cells were implanted subcutaneously in the flank of female Athymic nu/nu mice. When the tumors reached an average volume of 300 mm^3, animals were staged to ensure uniformity of the tumor size among various treatment groups. The TF-1 AML sc xenograft model was dosed intravenously one time every four days for four cycles (Q4dx4) with PBS vehicle or humanized anti-CD33 […] at the doses provided in Tables 11-13.

[2] = test system: N87 (gastric cancer) cells, Her2-target expressing; assay: In vitro cell assay, cell viability by MTS, N87; assay type: cell-based; conditions: 96 h, read-out: Average IC50, N87
Procedure: (§1) Her2-Target expressing (BT474 (breast cancer), N87 (gastric cancer), MDA-MB-361-DYT2 (breast cancer)) or Her2-non-expressing (MDA-MB-468, HT29) cells, or 0033-target expressing HL60, HEL92.1.7, NB4, TF-1 or 0033-non-expressing (Raji) cells were seeded in 96-well cell culture plates for 24 hours before treatment. Cells were treated with 3-fold serially diluted antibody-drug conjugates or free compounds (i.e., no antibody conjugated to the drug) in duplicate at 10 concentrations. Cell viability was determined by CellTiter 96® AQueous One Solution Cell Proliferation MTS Assay (Promega, Madison WI) 96 hours after treatment. Relative cell viability was determined as percentage of untreated control. IC50 values were calculated using a four parameter logistic model #203 with XLfit v4.2 (IDBS, Guildford, Surry, UK). Results are shown below in Table 3 (for payloads), Table 4 (for Herceptin conjugates), and Table 5 (for CD33 conjugates).

[3] = test system: MDA-MB-361-DYT2 (breast cancer) cells, Her2-target expressing; assay: In vitro cell assay, cell viability by MTS, MDA-MB-361-DYT2; assay type: cell-based; conditions: 96 h, read-out: Average IC50, MDA-MB-361-DYT2
Procedure: as §1

[4] = test system: HT29 cells, Her2-non-expressing; assay: In vitro cell assay, cell viability by MTS, HT29; assay type: cell-based; conditions: Homo sapiens, HT-29, 96 h, read-out: Average IC50, HT29
Procedure: as §1

[5] = test system: HL60 cells, CD33-target expressing; assay: In vitro cell assay, cell viability by MTS, HL60; assay type: cell-based; conditions: Homo sapiens, HL-60, 96 h, read-out: Average IC50, HL-60
Procedure: as §1

[6] = test system: HEL92.1.7 cells, CD33-target expressing; assay: In vitro cell assay, cell viability by MTS, HEL92.1.7; assay type: cell-based; conditions: Homo sapiens, HEL 92.1.7, 96 h, read-out: Average IC50, HEL92.1.7
Procedure: as §1

[7] = test system: NB4 cells, CD33-target expressing; assay: In vitro cell assay, cell viability by MTS, NB4; assay type: cell-based; conditions: Homo sapiens, NB-4, 96 h, read-out: Average IC50, NB4
Procedure: as §1

[8] = test system: TF-1 cells, CD33-target expressing; assay: In vitro cell assay, cell viability by MTS, TF-1; assay type: cell-based; conditions: Homo sapiens, TF-1, 96 h, read-out: Average IC50, TF-1
Procedure: as §1

[9] = test system: Raji cells, CD33-non-expressing; assay: In vitro cell assay, cell viability by MTS, Raji; assay type: cell-based; conditions: Homo sapiens, 96 h, read-out: Average IC50, Raji
Procedure: as §1

| Compound | efficacy in TF-1 AML xenografts [1] | IC50 [2] [nM] | IC50 [3] [nM] | IC50 [4] [nM] | IC50 [5] [nM] | IC50 [6] [nM] | IC50 [7] [nM] | IC50 [8] [nM] | IC50 [9] [nM] |
| --- | --- | --- | --- | --- | --- | --- | --- | --- | --- |
| Mylotarg®: "anti-CD33 humanized monoclonal antibody conjugated to calicheamicin for the treatment of acute myelogenous leukemia" | ineffective | – | – | – | – | – | – | – | – |
| CCN[C@H]1CO[C@@H](O[C@H]2[C@H](O[C@H]3C#C/C=C\C#C[C@]4(O)CC(=O)C(NC(=O)OC)=C3/C4=C\CSSC(C)C)O[C@H](C)[C@@H](NO[C@H]3C[C@H](O)[C@H](SC(=O)c4c(C)c(I)c(O[C@@H]5O[C@@H](C)[C@H](O)[C@@H](OC)[C@H]5O)c(OC)c4OC)[C@@H](C)O3)[C@@H]2O)C[C@@H]1OC [Example P1] | – | 0.007 | 0.021 | 0.003 | 0.003 | 0.028 | 0.003 | 0.071 | 0.006 |
| CCN[C@H]1CO[C@@H](O[C@H]2[C@H](O[C@H]3C#C/C=C\C#C[C@]4(O)CC(=O)C(NC(=O)OC)=C3/C4=C\CSSC(C)(C)CC(=O)NN)O[C@H](C)[C@@H](NO[C@H]3C[C@H](O)[C@H](SC(=O)c4c(C)c(I)c(O[C@@H]5O[C@@H](C)[C@H](O)[C@@H](OC)[C@H]5O)c(OC)c4OC)[C@@H](C)O3)[C@@H]2O)C[C@@H]1OC [Example P7] | – | 0.046 | 1.03 | 0.075 | 0.124 | 1.22 | 0.152 | > 90 | 0.161 |
| CCN(CC(=O)O)[C@H]1CO[C@@H](O[C@H]2[C@H](O[C@H]3C#C/C=C\C#C[C@]4(O)CC(=O)C(NC(=O)OC)=C3/C4=C\CSSC(C)C)O[C@H](C)[C@@H](NO[C@H]3C[C@H](O)[C@H](SC(=O)c4c(C)c(I)c(O[C@@H]5O[C@@H](C)[C@H](O)[C@@H](OC)[C@H]5O)c(OC)c4OC)[C@@H](C)O3)[C@@H]2O)C[C@@H]1OC [Example P50] | – | 1.05 | 7.33 | 0.775 | 0.372 | 3.93 | 0.127 | 17.9 | 0.438 |
| CCN[C@H]1CO[C@@H](O[C@@H]2C(O)[C@H](NO[C@H]3C[C@H](O)[C@H](SC(=O)c4c(C)c(I)c(O[C@@H]5O[C@@H](C)[C@H](O)[C@@H](OC)[C@H]5O)c(OC)c4OC)[C@@H](C)O3)[C@@H](C)O[C@H]2O[C@H]2C#C/C=C\C#C[C@]3(O)CC(=O)C(NC(=O)OC)=C2/C3=C\CSS[C@H](C)CO)C[C@@H]1OC (stereo in doubt) [Example P47] | – | 1.87 | 6.54 | 1.4 | 0.054 | 0.141 | 0.04 | 0.737 | 0.05 |
